Measured values as given in patent publication US20250249001A1, “METHODS OF TREATING SUBSTANCE USE DISORDER WITH 4-(3-CYANOPHENYL)-6-PYRIDINYLPYRIMIDINE MGLU5 NEGATIVE ALLOSTERIC MODULATORS” (Tempero Bio, Inc., priority 2022, published 2025).

Legend:
[1] = system: oxycodone reinstatement in rats; test: Yohimbine-induced reinstatement of oxycodone self-administration; type: in vivo, Sprague-Dawley rats; details: 3 mg/kg thirty minutes before yohimbine 2 mg/kg; Ps<0.001
Protocol: Evaluation of Compound 1 on Oxycodone Reinstatement. After completion of testing rats were re-trained with oxycodone for one week to ensure stable baseline. Rats then underwent a 6-day extinction where only saline infusion occurred when active lever was pressed. Meanwhile, the rats were divided into 3 groups: All rats received one injection of alpha-2 adrenergic antagonist yohimbine (2 mg/kg) with 0 min pretreatment (rats were placed into the training box immediately). Thirty minutes before yohimbine treatment, one group of rats received saline, another group received MTEP 3 mg/kg injection, and the 3rd group received Compound 1 (3 mg/kg). Yohimbine-induced reinstatement was re-tested two more times in the same rats 3 days and 6 days after the first test, under continuous extinction procedure.
Statistical Analysis. Prism 9.40 software package Version 9 was used for statistical analysis and graphing. The number of active lever responses were recorded during each session and compared between treatment groups. A one-way mixed-effects model (REML) of ANOVA followed by Dunnett's post hoc tests were used to analyze efficacy of Compound 1 and MTEP on oxycodone self-administration in stages I (The repeated measure ANOVA was not totally applicable due to a few outlier data points, which are removed), and one-way mixed-effects model (REML) of ANOVA followed by Tukey's post hoc tests were used in Stage II. An effect was considered significant if P<0.05. Data were represented as the mean and standard error to the mean (s.e.m). Statistical outliers which exceeded mean +/− (2× standard deviation) of the group were removed from the analysis.

[2] = system: oxycodone self-administration in rats; test: Intravenous oxycodone self-administration, fixed ratio FR3; type: in vivo, Sprague-Dawley rats; details: for oxycodone self-administration, Mean Diff., Vehicle vs. treatment: FR3
Protocol: Animals. Adult male Sprague-Dawley rats (300-325 g at arrival) from Envigo (Indiana, USA) were used. Upon arrival, rats were single housed in standard cages with filter tops, and they were acclimated for at least 7 days before any treatment. All rats were examined and handled prior to initiation of the study. During the study, 12 h/12 h light/dark cycles were maintained. The room temperature was 21-23° C. with a relative humidity maintained at 30-70%. Water was provided ad libitum for the duration of the study.
Test Article(s) • Oxycodone (0.05 mg/kg/infusion; Sigma-Aldrich, USA) was dissolved in saline and infused at a rate of 0.1 ml/infusion. • Compound 1 (0.3, 1, and 3 mg/kg) was formulated in 10% Solutol HS15+90% (10% aqueous hydroxypropyl)-β-cyclodextrin and injected IP 30 minutes prior to test at a dose volume of 2 ml/kg. In the reinstatement study only 3 mg/kg was used. • MTEP (3-((2-Methyl-4-thiazolyl)ethynyl)pyridine; 3 mg/kg), was dissolved in saline and injected IP 30 minutes prior to testing at a dose volume of 2 ml/kg.
Apparatus. Intravenous drug self-administration took place in experimental chambers within sound-attenuating cubicles equipped with an exhaust fan (Med Associates, VT). Each chamber contains two response levers situated on one wall of the chamber. A stimulus light was located above each lever and a house light was located at the top of the opposite wall. A pellet receptacle was situated between the two levers for delivery of food pellets (Bio-Serv's Dustless Precision Pellets #F0165, 45 mg). An infusion pump mounted above each chamber delivers drug solutions via Tygon tubing connected to a single channel fluid swivel, which was mounted on a balance arm above the operant chamber. The output of the liquid swivel was attached to the externalized terminus of the intravenous catheter.
Surgery and catheter maintenance: The rats were first implanted with jugular vein catheters (Access Technologies, USA). After the surgery, catheters were flushed daily with 0.2 ml of heparin-Enrofloxacin solution to avoid clogging and to ensure smooth drug infusion. The flushing liquid was made in 50 ml volume units which contained 1500 U Heparin and 320 mg Enrofloxacin (Baytril®). The solution was stored in sterilized vials in a 4° C. refrigerator. After the rats recovered from catheterization surgery, they were food-restricted (about 15 or 20 g/day) and maintained at ˜85% of their free-feeding, age-matched control body weight throughout the study. Starting from the 3rd day of food restriction, rats were trained to press the active lever (one of the two levers) to obtain food. During the study, Methohexital sodium (Brevital®, Henry Schein Animal Health, USA) was used twice for catheter evaluation and thereby for indirect infusion confirmation. Brevital is a short-acting barbiturate that, when infused through the catheter, produces overt signs of sedation within seconds. […] The rats were first implanted with jugular vein catheters (Access Technologies, USA). After the surgery, catheters were flushed daily with 0.2 ml of heparin-Enrofloxacin solution to avoid clogging and to ensure smooth drug infusion. The flushing liquid was made in 50 ml volume units which contained 1500 U Heparin and 320 mg Enrofloxacin (Baytril®). The solution was stored in sterilized vials in a 4° C. refrigerator. After the rats recovered from catheterization surgery, they were food-restricted (about 15 or 20 g/day) and maintained at ˜85% of their free-feeding, age-matched control body weight throughout the study. Starting from the 3rd day of food restriction, rats were trained to press the active lever (one of the two levers) to obtain food. During the study, Methohexital sodium (Brevital®, Henry Schein Animal Health, USA) was used a few times for catheter evaluation and thereby for indirect infusion confirmation. Brevital is a short-acting barbiturate that, when infused through the catheter, produces overt signs of sedation within seconds. […]

[3] = 3 mg/kg IP 30 minutes prior to test

Row | Compound | yohimbine-induced oxycodone reinstatement vs Vehicle-Yohimbine group [1] | oxycodone self-administration, Mean Diff., Vehicle vs. treatment ([2]; 0.3 mg/kg IP 30 minutes prior to test) | oxycodone self-administration, Mean Diff., Vehicle vs. treatment ([2]; 1 mg/kg IP 30 minutes prior to test) | oxycodone self-administration, Mean Diff., Vehicle vs. treatment [2, 3] | oxycodone self-administration vs vehicle ([2]; all three doses, 0.3, 1 and 3 mg/kg IP) | self-administered oxycodone infusion vs vehicle treatment ([2]; 3 mg/kg IP)
1 | N#Cc1cc(Cl)cc(-c2cc(-c3ccc(F)cn3)ncn2)c1 [Compound 1, 3-chloro-5-[6-(5-fluoropyridin-2-yl)pyrimidin-4-yl]benzonitrile] | attenuated yohimbine-induced oxycodone reinstatement | 5.438 | 6.283 | 9.483 | significantly attenuated oxycodone self-administration | –
2 | Cc1nc(C#Cc2cccnc2)cs1 [MTEP, 3-((2-Methyl-4-thiazolyl)ethynyl)pyridine] | attenuated yohimbine-induced oxycodone reinstatement | – | – | 7.188 | – | significantly decreased self-administered oxycodone infusion
